# Test results: ChEMBL document CHEMBL1201862, “PubChem BioAssay data set” (2004)
# Active and inactive are the calls of the source.
# What was measured:
# Coagulation factor XII = target: T1, Coagulation factor XII (Homo sapiens, UniProt P00748); format: functional;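 note: activated factor XIIa alpha cleaving a fluorogenic AMC peptide substrate; inhibitor potency from loss of enzyme activity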
# T1 sequence (P00748 whole entry): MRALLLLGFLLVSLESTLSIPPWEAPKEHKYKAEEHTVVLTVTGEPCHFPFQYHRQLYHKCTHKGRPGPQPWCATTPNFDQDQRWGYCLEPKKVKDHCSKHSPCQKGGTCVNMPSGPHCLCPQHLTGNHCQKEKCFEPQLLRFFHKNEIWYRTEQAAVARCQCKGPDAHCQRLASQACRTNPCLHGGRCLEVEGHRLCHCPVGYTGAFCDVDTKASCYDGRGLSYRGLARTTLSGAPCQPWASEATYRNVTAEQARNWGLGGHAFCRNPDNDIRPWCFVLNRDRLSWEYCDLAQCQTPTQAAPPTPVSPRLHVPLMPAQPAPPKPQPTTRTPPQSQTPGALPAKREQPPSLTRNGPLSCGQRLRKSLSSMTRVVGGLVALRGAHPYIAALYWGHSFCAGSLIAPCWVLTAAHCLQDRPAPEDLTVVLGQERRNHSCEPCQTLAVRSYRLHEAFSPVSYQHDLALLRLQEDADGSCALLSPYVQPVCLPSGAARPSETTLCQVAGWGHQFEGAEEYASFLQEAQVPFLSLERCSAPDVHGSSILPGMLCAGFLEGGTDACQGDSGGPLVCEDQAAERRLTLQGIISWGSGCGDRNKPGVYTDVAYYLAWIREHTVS
# INS1 = experiment: INS-1E survival protection against cytokine death – cell-based, luminescence, retest, dose response (AID 449756); format: functional; settings: Rattus norvegicus;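 note: cell death triggered by IL-1 beta plus TNF-alpha plus IFN-gamma mixture; protective hits raise ATP signal compared with cytokine alone wells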
# [1] = viability of uninfected HEp-2 cells – cell-based, HTS, cytotoxicity control for RSV inhibitor project, dose response (AID 2410); format: functional; settings: human respiratory syncytial virus
# Vero [2] = experiment: cells; format: functional; settings: Chlorocebus sabaeus
# Vero [3] = experiment: cells; format: functional, cell-based; settings: Chlorocebus sabaeus
# [4] = Luminescence Cell-Based Dose Response HTS to Identify Inhibitors of 5'UTR Stem-Loop Driven Prion Protein mRNA Translation in H4 Neuroglioblastoma Cells. [Related pubchem assays: 1827 (Project Summary), 1813 (Primary HTS)]; format: functional
# [5] = alpha-synuclein stem-loop luciferase translation blockers – H4 neuroglioma cells, luminescence, confirmation (AID 1988); format: functional, cell-based
# [6] = luciferase reporter signal suppression in cells – H4 neuroglioma cells, luminescence, dose response (AID 1990); format: functional, cell-based
# [7] = target: Beta-2 adrenergic receptor (Homo sapiens, UniProt P07550); experiment: ADRB2 activation measured by internalization – cell-based, FAP fluorogen, flow cytometry, cherry pick 1, dose response (AID 588763); format: functional
# [8] = target: T2, Calpain-2 catalytic subunit (Sus scrofa, UniProt P43367); experiment: m-calpain protease blockers, concentration series – biochemical, fluorogenic peptide substrate, dose response (AID 1420); format: functional
# T2 sequence (P43367 whole entry): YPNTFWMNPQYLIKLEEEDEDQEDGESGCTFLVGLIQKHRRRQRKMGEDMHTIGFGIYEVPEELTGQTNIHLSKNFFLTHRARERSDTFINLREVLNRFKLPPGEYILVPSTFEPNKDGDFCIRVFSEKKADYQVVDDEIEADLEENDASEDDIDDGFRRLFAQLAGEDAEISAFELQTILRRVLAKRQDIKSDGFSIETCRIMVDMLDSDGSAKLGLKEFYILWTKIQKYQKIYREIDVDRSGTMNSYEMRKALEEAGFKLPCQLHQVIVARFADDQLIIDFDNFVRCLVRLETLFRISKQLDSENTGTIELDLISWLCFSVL
# [9] = target: T3, Carboxy-terminal domain RNA polymerase II polypeptide A small phosphatase 1 (Homo sapiens, UniProt Q9GZU7); experiment: CTDSP1 inhibitors, concentration-response, biochemical, absorbance readout, ultra-high-throughput screen actives (AID 540297); format: functional
# T3 sequence (Q9GZU7 whole entry): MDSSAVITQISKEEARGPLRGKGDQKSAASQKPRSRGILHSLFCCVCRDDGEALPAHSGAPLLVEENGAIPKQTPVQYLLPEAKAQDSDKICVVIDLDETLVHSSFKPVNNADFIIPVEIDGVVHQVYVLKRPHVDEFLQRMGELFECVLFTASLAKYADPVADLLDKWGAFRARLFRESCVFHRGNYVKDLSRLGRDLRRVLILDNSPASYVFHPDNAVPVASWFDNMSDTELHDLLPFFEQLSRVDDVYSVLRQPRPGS
# Sequence of Beta-2 adrenergic receptor (P07550 whole entry): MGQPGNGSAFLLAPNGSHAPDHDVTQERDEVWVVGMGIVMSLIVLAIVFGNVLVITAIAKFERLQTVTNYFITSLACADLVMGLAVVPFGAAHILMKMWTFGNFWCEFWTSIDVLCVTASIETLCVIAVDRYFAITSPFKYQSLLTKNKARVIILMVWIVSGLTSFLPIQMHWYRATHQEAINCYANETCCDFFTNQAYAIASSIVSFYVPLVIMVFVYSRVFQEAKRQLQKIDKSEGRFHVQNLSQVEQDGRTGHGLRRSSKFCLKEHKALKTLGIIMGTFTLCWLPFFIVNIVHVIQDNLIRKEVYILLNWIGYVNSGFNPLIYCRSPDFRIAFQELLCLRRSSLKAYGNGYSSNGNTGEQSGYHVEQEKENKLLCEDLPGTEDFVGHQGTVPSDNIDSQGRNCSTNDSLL
structure (smiles),measurement,setting,value
c1ccc(-c2csc3ncnc(NCC4COc5ccccc5O4)c23)cc1 (centres undefined),IC50,Coagulation factor XII,> 50 µM (inactive)
same,AC50,INS1,1.41 µM (active)
CCOc1ccccc1CNC(=O)c1cc2oc3ccccc3c2n1CC,CC50,[1],13.8 µM (active)
same,IC50,cells,42.3 µM (active)
same,CC50,Vero [2],> 25 µM (active)
same,IC50,Vero [3],> 12.5 µM (active)
same,EC50,[4],16.6 µM (active)
same,EC50,[5],14.9 µM (active)
same,EC50,[6],> 120 µM (not active)
CCOc1ccc2nc(NC(=O)CSc3nc4cccnc4n3C)sc2c1,EC50,[7],2.44 µM (active)
O=C1CC(c2ccccc2)(c2ccccc2)c2ccccc21,EC50,[7],17.1 µM (inactive)
C=CCNC(=S)N/N=C/c1ccc(C)c([N+](=O)[O-])c1,IC50,[8],3.49 µM (not active)
same,IC50,Coagulation factor XII,> 50 µM (inactive)
O=C(O)c1ccc(Oc2ccc(S(=O)(=O)c3ccc(C(=O)O)c(C(=O)O)c3)cc2)cc1,IC50,[9],6.97 µM (active)
